# Source: PMC6474902, “Examination of novel 4-aminoquinoline derivatives designed and synthesized by a hybrid pharmacophore approach to enhance their anticancer activities” (Scientific Reports, 2019)
# “Also recorded” adds a separate entry of the source.
# Tests used:
# Type in all cases: cell-based, human
# NCI-60 cancer panel = NCI-60 cancer panel screening; conditions: screening carried out by the USA National Cancer Institute
# Experimental: Therefore, we examined its effects on several cellular and molecular biological aspects to gain a better understanding about its mode of function. […]
# compound 13 show s effective grow th inhibition on a w ide range of cancers. Screening of compound 13 with the NCI-60 cancer panel was carried out by the USA National Cancer Institute.
# (1 picture or pasted object on this page, not shown here)
# [1] = test system: Cdk1, Cdc25C, Wee1 in HeLa S3 cells; test: Western blot of G2-M-G1 regulators after nocodazole release; conditions: 10 µM
# Experimental: To gain a better understanding about the molecular mechanism of compound 13 on antigrowth/cell-killing, HeLa S3 cells synchronized at G1/S by double thymidine treatment (DT) (Fig. 4b) were released into complete medium for 6 h, at which time most cells are at late S-G2/M phase (Fig. 4c). The cells were then maintained for additional 6 h in the absence (Fig. 4d) or presence of 10 μM compound 13 (Fig. 4e). More than 62% of cells progressed into G1 of the next cell cycle in the sham control (Fig. 4d). […] Since the level of securin is low, cell cycle is likely arrested prior to the chromatin separation stage in the presence of compound 13.
# Figure 5 Compound 13-treated cells are arrested at prometa-metaphase through the inactivation of Cdk1. HeLa S3 cells were synchronized at G2/M phase by incubating in 50 ng/ml nocodazole (noco) for 18 h. The cells were then released into complete medium at time 0 h in the absence (Sham) or presence of 10 µM compound 13. Samples were then taken at the indicated times post-nocodazole. […] (b) Cdk1 may be inactivated by the combination of a high level of Wee1 kinase and inactivation of Cdc25C. The relative intensity of band signals are quantified by densitometry and presented the results in Supplementary Fig. S3.
# Western blot and densitometry were carried out as we described previously[29],[30].
# [2] = test system: MDA-MB231, MDA-MB468, MCF7 breast cancer cells; 184B5 and MCF10A non-cancer breast cells; test: SRB assay, panel of breast cancer and non-cancer breast cell lines; conditions: judged from GI50 values of Table 1
# Experimental: The antigrowth effects of 4-piperazinylquinoline sulfonyl analogs on human breast tumor cells was initially evaluated using MDA-MB468 (a PTEN defective, EGFR positive breast adenocarcioma), MDA-MB231 (p53 and pRB mutated, triple-negative breast carcinoma), and MCF7 (p53+/−, invasive ductal breast carcinoma) cell lines. In addition, the cytotoxicity of all the compounds was also evaluated with the 184B5 and MCF10A non-cancer immortalized breast epithelial cell lines, to determine if these newly synthesized compounds have differential cytotoxic effects on cancer and non-cancer cells. The panel of three breast cancer cell lines with different genetic back ground and the well-studied two non-cancer immortalized breast cell lines would provide insights into the efficacy and toxicity of the test compounds in the different genetic background and at different stages of tumor development. The dose response of each cell line was established by determining the number of viable cells after 48 h of continuous drug treatment against seven different concentrations (100 µM to 0.0064 µM) of each compound. The reading of sulphorodamine B (SRB) staining is known to accurately reflect the level of total cellular macromolecules/cell growth/proliferation[6],[23]. […] The data for CQ and cisplatin were included as references. […] The differences in the GI50 values may be attributable to such factors as the nature of the sulfonyl group and the halogen substitution on the 7th position of the 4-piperazinylquinoline ring system, and the genetic and biochemical background of the cell lines.
# Antiproliferative/antigrowth effects were determined by a SRB-based protocol[6],[23]. For a typical screening experiment, 5,000–10,000 cells were inoculated into 100 µL medium per well of a 96-well microtiter plate as described previously. Briefly, after the inoculation, the microtiter plate was incubated at 37 °C, 5% CO2, 95% air and 100% relative humidity for 24 h, prior to addition of experimental drugs. Some of the sample wells were fixed with 25 µL of 50% tricholoroacetic acid (TCA) as a control of the cell population for each cell line at the time of drug addition (Tz). An aliquot of the frozen stock was thawed and diluted to a desired final maximum test-concentration with complete medium. Two to ten-fold serial dilutions were made to provide a total of seven drug concentrations (and a control [C]). Following addition of drugs, the culture plate was incubated for additional 48 h. Cells were fixed in situ by slowly adding 25 µL of ice-cold 50% (w/v) TCA (final concentration, 10% TCA), and were then incubated for 60 min at 4 °C. The supernatant was discarded, and the plate was washed five times with tap water, followed by air-dry. 50 µL of SRB solution at 0.4% (w/v) in 1% acetic acid was added to each well, and the plate was incubated for >30 min at room temperature. Unbound SRB was removed by five washes with tap water, followed by air-drying. The cells “stained” with SRB were solubilized with 10 mM trizma base, and the absorbance was read on an automated plate reader at a wavelength of 515–564 nm. The relative growth rate (%) was calculated for each of the compound concentrations according to the following formula: (Ti−Tz)/(C−Tz)×100
# In the formula, time zero (Tz), control growth (C), and OD for different concentration of tested compounds (Ti). The GI50 for each compound was obtained from a non-linear Sigmoidal dose-response (variable slope) curve which is fitted by GraphPad Prism v.4.03 software. Values were calculated for each of these parameters if the level of activity was reached. However, if the effect was not reached or was exceeded, the value for that parameter was expressed as greater or less than the maximum or minimum concentration tested.
# MCF10A = test: LysoTracker Red staining of lysosomal volume, non-cancer cells; conditions: 5 μM, 48 h
# Experimental: Since the structure of compound 13 contains the main scaffold of CQ, we examined whether cells treated with compound 13 also results an increase in the lysosomal volume.
# LysoTracker Red sDND-99 staining was carried out as recommended by the manufacturer (Molecular Probes, Eugene, OR). Briefly, cells grown on a cover slip were incubated in 50 nM LysoTracker Red DND-99 in serum-free RPMI-1640 medium for 30 min and then rinsed once with serum-free medium. The cells were washed three times with ice-cold medium, incubated in fresh medium for 45 min at 37 °C, and then washed once with fresh medium. Subsequently, the cells were examined by fluorescence microscopy using two filters (for green and red images) sequentially. Merging the two color images was done using Northern Eclipse software.
# Sham treated Compound 13 (5 μ M), 48 h
# (VR23) in non- cancer MCF10A, in contrast to cancer cells (MCF7, HeLa). […]
# MDA-MB468 = test: SRB antiproliferative/antigrowth assay; conditions: Homo sapiens, MDA-MB-468, 48 h, read-out: GI50 MB468
# How it was run: (§1)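 Cells seeded 24 h before exposure to seven concentrations (100 µM to 0.0064 µM) for 48 h at 37 °C. Growth by TCA fixation and SRB staining, absorbance 515–564 nm, relative to time-zero and untreated controls; GI50 from variable-slope sigmoidal fit, reported as greater/less than range limits when not reached.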
# MDA-MB231 = test: SRB antiproliferative/antigrowth assay; conditions: Homo sapiens, MDA-MB-231, 48 h, read-out: GI50 MB231
# How it was run: as §1
# MCF7 cells = test: Cell killing by flow cytometry, asynchronous cells; conditions: 2.7 μM, 48 h
# Experimental: Asynchronous MCF7 cells were incubated for 48 h in the absence (Sham control) or presence of compound 13 at 2.7 or 8.0 µM.
# Cells (2.0 × 10^6) were harvested by centrifugation at 1,000 rpm on a bench-top centrifuge for 5 min, followed by fixation with ice-cold ethanol (70%) for 30 min to overnight at −20 °C[13]. The ethanol was then removed by centrifugation, and cells were resuspended in 1 × PBS solution, followed by centrifuge. The cell pellet was than stained with propidium iodide (PI) master mix (100 μg/mL RNase A, 100 μg/mL PI, 0.3% Nonidet P-40 and 0.1% sodium citrate in distilled water) for 30 min at 37 °C. DNA content was measured using a Beckmann Coulter Cytomics FC500 (Beckman Coulter, Fullerton, CA), and the proportion of cell populations in G0/G1, S, and G2/M phases of cell cycle was calculated on the basis of DNA distribution histograms using CXP software.
smiles,measurement,setting,value
"O=[N+]([O-])c1ccc(S(=O)(=O)N2CCN(c3ccnc4cc(Cl)ccc34)CC2)c([N+](=O)[O-])c1 [Compound 13, 7-Chloro-4-(4-(2,4-dinitrophenylsulfonyl)piperazin-1-yl)quinoline]",growth inhibition in NCI-60 cancer panel (in words),NCI-60 cancer panel,effective on many different human cancers
same,Cdc25C phosphatase activity status,[1]; 2–3 h post-nocodazole,almost completely inactive
same,phosphorylation of Thr161 and Tyr15 on Cdk1,[1]; 2–3 h post-nocodazole,highly phosphorylated
same,Wee1 activity status,[1]; 3 h post-nocodazole,very active
same,preferential antigrowth effect on cancer versus non-cancer cells (in words),[2],effective and preferential antigrowth effects on cancer cells; also recorded: stronger antigrowth/antiproliferation activity against cancer cells than non-cancer cells
same,lysosomal volume,MCF10A,does not increase; also recorded: did not show the same degree of increase in lysosomal volume
same,GI50,MDA-MB468,700 ± 100 nM
same,GI50,MDA-MB231,3400 ± 100 nM
same,cell killing,MCF7 cells,effectively killed MCF7 cells
